Laboratory results taken from PubChem BioAssay AID2060613 (Molecular Pharmacology Branch, DTP, NCI, 2025).
pIC50: −log10 of the molar value. Where “and” joins values, the source holds several entries; their conditions need not be identical. Equal values may be shown once.

Test system: 233499-124-R-J3-PDC complex spheroid viability
Assay: Anticancer human tumor 233499-124-R-J3-PDC patient-derived colon adenocarcinoma cell line growth inhibition [CLK]
Conditions: for viability, T/C: stronger effect = lower value; active = viability on the fitted dose curve at most 10% of control; inactive = the rest
Source text: A high-throughput screen of multi-cell type tumor spheroids was designed to identify active combinations of […] and targeted small molecules. Complex spheroids include a stromal component modeled by human endothelial cells (HUVEC) and fibroblasts modeled by human mesenchymal stem cells (MSCs). The concentration ranges selected for each drug and investigational agent were based upon clinically achievable concentrations if the clinical Cmax of the agent was known.
Compounds. The drugs and investigational agents: cirtuvivint (SM08502; NSC835563), CC-671 (NSC850746), vemurafenib (NSC761431), tapotoclax (NSC804041), sotorasib (NSC818433), adagrasib (NSC831453), MRTX-1133 (NSC836407), BAY2416964 (NSC825713), copanlisib (NSC816437), inavolisib (NSC800729), abemaciclib (NSC768073), osimertinib (NSC779217), entinostat (NSC756642), eltanexor (KPT-8602, NSC794443), venetoclax (NSC766270), ceralasertib (NSC777638), bortezomib (NSC756655), olaparib (NSC753686), talazoparib (NSC767125), alisertib (NSC759677), peposertib (NSC802822), gemcitabine (NSC613327), 5-fluorouracil (NSC19893), SN-38 (NSC673596), oxaliplatin (NSC266046), paclitaxel (NSC125973), and doxorubicin (NSC123127), were obtained from the National Cancer Institute (NCI) Developmental Therapeutics Program Chemical Repository. The FDA-approved anticancer drug set is available from the Developmental Therapeutics Program at https://dtp.cancer.gov/organization/dscb/obtaining/available plates.htm. […] The stock solutions were prepared in dimethyl sulfoxide (DMSO, Sigma-Aldrich, St. Louis, MO, cat. D2650), except for the platinum complexes which were prepared in saline (Quality Biological, Gaithersburg, MD, cat. 114-055-101), at 800-fold the tested concentration and stored at -70 degrees C prior to their use. All drugs and investigational agents were tested over a range starting from a high concentration at or near the clinical Cmax and decreasing in half-log increments. If the clinical Cmax for an agent had not been determined, the highest concentration tested was 10 microM.
Cell Culture. All cells were maintained in an incubator at 37 degrees C and 5% CO2 with 95% humidity. The PDC lines were cultured according to standard operating procedures established by the NCI PDMR. Briefly, all PDCs were thawed and cultured in Matrigel-coated flasks prepared with a working solution of 1X Ham's F-12 nutrient mix, without supplementation (Invitrogen, Waltham, MA, cat. 11765054), 100 U/mL penicillin-streptomycin (Invitrogen, cat. 15140122), and 2.5% Matrigel (Corning Inc., Corning, NY, cat. 354248) for the first three passages. The 947758-054-R-J2-PDC line was cultured in 6B/Colon 1A media, which includes advanced DMEM/F-12 (Thermo Fisher Scientific, cat. 12634028), 10 mM HEPES (Thermo Fisher Scientific, cat. 15630080), 1X GlutaMAX supplement (Thermo Fisher Scientific, cat. 35050061), 0.1 mg/mL primocin (InvivoGen, cat. ant-pm-2), 10% defined fetal bovine serum, heat inactivated (HyClone Laboratories Inc., cat. SH30070.03HI), 1.25 mM N-Acetyl-L-cysteine (Sigma-Aldrich, cat. A9165), 10 mM nicotinamide (Sigma-Aldrich, cat. N0636), 1X B-27 supplement (Thermo Fisher Scientific, cat. 17504044), 1X N-2 supplement (Thermo Fisher Scientific, cat. 17502048), and 10 microM Y-27632 dihydrochloride (Tocris Bioscience, cat. 1254). The 876862-298-R-J1-PDC was cultured in 6E media, which includes all 6B/Colon 1A media components plus 50% L-WRN conditioned media (ATCC, cat. CRL-3276), 50 ng/mL recombinant human EGF recombinant protein (hEGF; Thermo Fisher Scientific, cat. PHG0311), 10 ng/mL recombinant human fibroblast growth factor 10 (hGFG-10; PeproTech, cat. 100-26), 1 ng/mL recombinant human fibroblast growth factor 2 (hFGF-2; PeproTech, cat. 100-18B), and 1 µM prostaglandin E2 (PGE2; Tocris, cat. 2296). The 227483-062-R1-J1-PDC line was cultured in Panc media, containing all 6E components except hFGF-2, with the addition of 500 nM SB-431542 (Selleckchem, cat. S1067) and 10 nM gastrin (Tocris, cat. 3006). […]

[1] = curve of first compound, second compound 0.0316 µM
[2] = curve of first compound, second compound 0.1 µM
[3] = curve of first compound, second compound 0.316 µM
[4] = curve of first compound, second compound 1 µM
[5] = curve of first compound, second compound 3.16 µM
[6] = curve of first compound, second compound 10 µM
[7] = second compound 0.0316 µM, first compound 0.00316 µM
[8] = second compound 0.0316 µM, first compound 0.01 µM
[9] = second compound 0.0316 µM, first compound 0.0316 µM
[10] = second compound 0.0316 µM, first compound 0.1 µM
[11] = second compound 0.1 µM, first compound 0.00316 µM
[12] = second compound 0.1 µM, first compound 0.01 µM
[13] = second compound 0.1 µM, first compound 0.0316 µM
[14] = second compound 0.1 µM, first compound 0.1 µM
[15] = second compound 0.316 µM, first compound 0.00316 µM
[16] = second compound 0.316 µM, first compound 0.01 µM
[17] = second compound 0.316 µM, first compound 0.0316 µM
[18] = second compound 0.316 µM, first compound 0.1 µM
[19] = second compound 1 µM, first compound 0.00316 µM
[20] = second compound 1 µM, first compound 0.01 µM
[21] = second compound 1 µM, first compound 0.0316 µM
[22] = second compound 1 µM, first compound 0.1 µM
[23] = second compound 3.16 µM, first compound 0.00316 µM
[24] = second compound 3.16 µM, first compound 0.01 µM
[25] = second compound 3.16 µM, first compound 0.0316 µM
[26] = second compound 3.16 µM, first compound 0.1 µM
[27] = second compound 10 µM, first compound 0.00316 µM
[28] = second compound 10 µM, first compound 0.01 µM
[29] = second compound 10 µM, first compound 0.0316 µM
[30] = second compound 10 µM, first compound 0.1 µM
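Also: spheroids exposed to the drug combinations for seven days.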
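For viability, T/C in this document: percent viability relative to DMSO vehicle control wells taken as 100%.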

Cn1ncnc1[C@H]1c2n[nH]c(=O)c3cc(F)cc(c23)N[C@@H]1c1ccc(F)cc1 + CN1CCN(c2cc(C(=O)Nc3cc4cc(-c5cnn(C)c5)ccc4cn3)ccn2)CC1
> 9.50: pIC50 [4] | pIC50 [5] | pIC50 [6]
inactive: viability, T/C (second compound 0.0316 µM, first compound 0.000316 µM) 91.2% | viability, T/C (second compound 0.0316 µM, first compound 0.001 µM) 108% | viability, T/C [7] 100% | viability, T/C [8] 110% | viability, T/C [9] 104% | viability, T/C [10] 92.7% | viability, T/C (second compound 0.1 µM, first compound 0.000316 µM) 100% | viability, T/C (second compound 0.1 µM, first compound 0.001 µM) 105% | viability, T/C [11] 89.5% | viability, T/C [12] 97.8% | viability, T/C [13] 92.1% | viability, T/C [14] 94.4% | viability, T/C (second compound 0.316 µM, first compound 0.000316 µM) 85.5% | viability, T/C (second compound 0.316 µM, first compound 0.001 µM) 103% | viability, T/C [15] 101% | viability, T/C [16] 89.6% | viability, T/C [17] 92.7% | viability, T/C [18] 101% | viability, T/C (second compound 1 µM, first compound 0.000316 µM) 19.1%
< 7.00: pIC50 [1] | pIC50 [2] | pIC50 [3]
active: viability, T/C (second compound 1 µM, first compound 0.001 µM) 2.31% | viability, T/C [19] 5.38% | viability, T/C [20] 1.23% | viability, T/C [21] 2.59% | viability, T/C [22] 0.76% | viability, T/C (second compound 3.16 µM, first compound 0.000316 µM) 0.59% | viability, T/C (second compound 3.16 µM, first compound 0.001 µM) 0.64% | viability, T/C [23] 0.58% | viability, T/C [24] 0.53% | viability, T/C [25] 0.57% | viability, T/C [26] 0.46% | viability, T/C (second compound 10 µM, first compound 0.000316 µM) 0.41% | viability, T/C (second compound 10 µM, first compound 0.001 µM) 0.43% | viability, T/C [27] 0.45% | viability, T/C [28] 0.44% | viability, T/C [29] 0.51% | viability, T/C [30] 0.56%

CC(CO)NC(=O)c1cc(-c2ccc(Cl)cc2)nn(-c2cnn(C)c2)c1=O (stereo not drawn)
inactive: viability, T/C (compound 0.0316 µM) 103% and 94.8% | viability, T/C (compound 0.1 µM) 95.2% and 90.1% | viability, T/C (compound 0.316 µM) 96.3% and 95.6% | viability, T/C (compound 1 µM) 96.8% and 92.9% | viability, T/C (compound 3.16 µM) 92.7% and 96% | viability, T/C (compound 10 µM) 89.7% and 83.2%
< 5.00: pIC50 (curve of compound)

CNC(=O)c1ccc(Nc2nc(OC3CCCC3)c3c(-c4ccc5nc(C)oc5c4)c[nH]c3n2)c(OC)c1
< 5.00: pIC50 (compound alone, run of 08/01/2023)
inactive: viability, T/C (compound 0.0316 µM) 93.9% [middle of 12 runs] | viability, T/C (compound 0.316 µM) 74% [middle of 12 runs] | viability, T/C (compound 3.16 µM) 75.3% [middle of 12 runs] | viability, T/C (compound 10 µM) 72.6% [middle of 12 runs]

CCN1CCN(Cc2ccc(Nc3ncc(F)c(-c4cc(F)c5nc(C)n(C(C)C)c5c4)n3)nc2)CC1 + CN1CCN(c2cc(C(=O)Nc3cc4cc(-c5cnn(C)c5)ccc4cn3)ccn2)CC1
> 8.50: pIC50 [4] | pIC50 [5] | pIC50 [6]
inactive: viability, T/C [7] 96.4% | viability, T/C [8] 87.2% | viability, T/C [9] 81.5% | viability, T/C [10] 107% | viability, T/C (second compound 0.0316 µM, first compound 0.316 µM) 97.9% | viability, T/C (second compound 0.0316 µM, first compound 1 µM) 97.4% | viability, T/C [11] 91.5% | viability, T/C [12] 114% | viability, T/C [13] 83.1% | viability, T/C [14] 90.5% | viability, T/C (second compound 0.1 µM, first compound 0.316 µM) 93.1% | viability, T/C (second compound 0.1 µM, first compound 1 µM) 93.1% | viability, T/C [15] 92.7% | viability, T/C [16] 91.6% | viability, T/C [17] 96.2% | viability, T/C [18] 87.5% | viability, T/C (second compound 0.316 µM, first compound 0.316 µM) 86.9% | viability, T/C (second compound 0.316 µM, first compound 1 µM) 77.9%
active: viability, T/C [19] 6.1% | viability, T/C [20] 0.82% | viability, T/C [21] 1.32% | viability, T/C [22] 4.68% | viability, T/C (second compound 1 µM, first compound 0.316 µM) 6.35% | viability, T/C (second compound 1 µM, first compound 1 µM) 2.16% | viability, T/C [23] 0.75% | viability, T/C [24] 0.56% | viability, T/C [25] 0.71% | viability, T/C [26] 0.69% | viability, T/C (second compound 3.16 µM, first compound 0.316 µM) 1.11% | viability, T/C (second compound 3.16 µM, first compound 1 µM) 1.38% | viability, T/C [27] 0.5% | viability, T/C [28] 0.56% | viability, T/C [29] 1.04% | viability, T/C [30] 0.52% | viability, T/C (second compound 10 µM, first compound 0.316 µM) 0.59% | viability, T/C (second compound 10 µM, first compound 1 µM) 0.61%
< 6.00: pIC50 [1] | pIC50 [2] | pIC50 [3]

O=c1[nH]cc(F)c(=O)[nH]1
6.35 and 6.20: pIC50 (curve of compound)
inactive: viability, T/C (compound 0.0316 µM) 94.9% and 97.3% | viability, T/C (compound 0.1 µM) 106% and 96% | viability, T/C (compound 0.316 µM) 55.2% and 69.3% | viability, T/C (compound 1 µM) 50.6% and 37.5% | viability, T/C (compound 3.16 µM) 31.1% and 20.9% | viability, T/C (compound 10 µM) 30.8% and 23.1%
